Laboratory results as given in patent US20100093864A1, “ANTI-INFECTIVE THIOUREA COMPOUNDS” (LICA PHARMACEUTICALS, priority 2006, published 2010).
Converted amounts (≈) assume the structure as drawn. Like-named read-outs stand apart in the source and are kept apart here.

Assays:
[1] = test system: Staphylococcus aureus; experiment: Antibacterial screening (MIC), broth microdilution assay; format: cell-based; settings: read-out: MIC Staph. aureus
Procedure: An initial screening for in vitro activity was conducted in a broth microtiter assay. The synthesized compounds were assayed against several […] such as Staphylococcus aureus and 2 different strains of E. coli (including a type strain and an antibiotic-susceptible strain). Following initial screening MICs were determined.
Staphylococcus aureus ATCC29213 Staphylococcus aureus ATCC33591 (MRSA) Eschericia coli ATCC25922 Eschericia coli ESS
The screening was performed with test compounds in 4 different concentrations.
MICs for ATCC type strains fall within the limits posted by the NCCLS (M100-S11) when tested against Vancomycin, Tetracycline and Gentamycin.

[2] = target: bovine serum albumin (BSA) (Bos taurus, UniProt P02769); experiment: Protein binding bioassay: MICs in presence or absence of 40 mg/ml BSA; format: in vitro ADME; settings: MICs with or without 40 mg/ml BSA
bovine serum albumin (BSA), sequence (P02769 25-607): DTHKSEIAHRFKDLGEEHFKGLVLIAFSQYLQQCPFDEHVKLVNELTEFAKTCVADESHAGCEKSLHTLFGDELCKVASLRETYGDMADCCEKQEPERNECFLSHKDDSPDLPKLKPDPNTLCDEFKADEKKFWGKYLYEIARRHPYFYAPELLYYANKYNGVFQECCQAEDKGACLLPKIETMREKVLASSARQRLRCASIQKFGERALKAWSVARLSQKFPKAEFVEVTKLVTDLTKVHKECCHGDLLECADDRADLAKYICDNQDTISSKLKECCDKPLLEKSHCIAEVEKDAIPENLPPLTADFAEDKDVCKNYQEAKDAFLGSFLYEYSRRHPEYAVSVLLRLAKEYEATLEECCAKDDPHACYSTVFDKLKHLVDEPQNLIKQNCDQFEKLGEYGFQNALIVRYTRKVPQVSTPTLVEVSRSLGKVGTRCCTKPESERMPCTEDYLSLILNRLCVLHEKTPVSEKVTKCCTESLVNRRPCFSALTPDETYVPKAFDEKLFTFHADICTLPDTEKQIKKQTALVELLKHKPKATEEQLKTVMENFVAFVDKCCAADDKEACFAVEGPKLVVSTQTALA
Procedure: Protein binding was performed using a bioassay determining MICs in the presence or absence of 40 mg/ml bovine serum albumin (BSA).

[3] = test system: MCF7 cells (ATCC: HTB 22); experiment: MTT assay on MCF7 cells; format: cell-based
Text: The cytotoxicity effect of the compounds at different exposure times as a function of concentration has been tested in an erythrocyte hemolysis assay as well as an MTT assay on MCF7 cells (ATCC: HTB 22).

[4] = test system: erythrocyte; experiment: Erythrocyte hemolysis assay; format: cell-based; settings: for 50% Haemolysis: concentration giving 50% haemolysis
[5] = Staphylococcus aureus, broth microdilution per NCCLS M7-A5, strain not given

SMILES | MIC [1, 5] | fraction unbound [2] | MTT [3] | Haemolysis 4x MIC ([4]; 4 x MIC) | 50% Haemolysis [4] | Haemolysis 4x MIC ([4]; at 4x MIC) | MIC ([1]; Staphylococcus aureus) | MIC ([1]; broth microdilution per NCCLS M7-A5, strain not given)
FC(F)(F)c1cc(NC(=S)NCCc2ccc(Cl)cc2Cl)cc(C(F)(F)F)c1 [Compound D, 1-(3,5-Bis-trifluoromethyl-phenyl)-3-[2-(2,4-dichloro-phenyl)-ethyl]-thiourea] | 0.3 µM (≈ 0.138 µg/mL) | 0.02 | 150 µM | – | – | – | – | –
Cc1onc(-c2c(Cl)cccc2Cl)c1C(=O)N[C@@H]1C(=O)N2[C@@H]1SC(C)(C)[C@@H]2C(=O)O [Dicloxacillin, reference compound] | 0.5 µM (≈ 0.235 µg/mL) | – | >100 µM | 0% | 150 µM | – | – | –
FC(F)(F)c1cc(NC(=S)NCc2ccc(Cl)cc2)cc(C(F)(F)F)c1 [Compound F, 1-(3,5-Bis-trifluoromethyl-phenyl)-3-(4-chloro-benzyl)-thiourea] | – | < 0.03 | 150 µM | – | 150 µM | <1% | – | –
FC(F)(F)c1cc(NC(=S)NCCc2cccc(Cl)c2)cc(C(F)(F)F)c1 [Compound G, 1-(3,5-Bis-trifluoromethyl-phenyl)-3-[2-(3-chloro-phenyl)-ethyl]-thiourea] | 0.6 µM (≈ 0.256 µg/mL) | < 0.03 | 150 µM | – | 75 µM | 0% | – | –
CC(NC(=S)Nc1cc(C(F)(F)F)cc(C(F)(F)F)c1)c1ccc(Br)cc1 (stereo not shown) [Compound C, 1-(3,5-Bis-trifluoromethyl-phenyl)-3-[1-(4-bromo-phenyl)-ethyl]-thiourea] | 0.3 µM (≈ 0.141 µg/mL) | 0.02 | – | – | 37.5 µM | 15% | – | –
CN[C@H](CC(C)C)C(=O)N[C@H]1C(=O)N[C@@H](CC(N)=O)C(=O)N[C@H]2C(=O)N[C@H]3C(=O)N[C@H](C(=O)N[C@H](C(=O)O)c4cc(O)cc(O)c4-c4cc3ccc4O)[C@H](O)c3ccc(c(Cl)c3)Oc3cc2cc(c3O[C@@H]2O[C@H](CO)[C@@H](O)[C@H](O)[C@H]2O[C@H]2C[C@](C)(N)[C@H](O)[C@H](C)O2)Oc2ccc(cc2Cl)[C@H]1O [Vancomycin, reference compound] | – | – | >100 µM | – | 150 µM | 0% | 0.3 µM (≈ 0.435 µg/mL) | –
FC(F)(F)c1cc(NC(=S)NCc2ccc(Cl)cc2Cl)cc(C(F)(F)F)c1 [Compound B, 1-(3,5-Bis-trifluoromethyl-phenyl)-3-(2,4-dichloro-benzyl)-thiourea] | – | < 0.02 | 150 µM | – | 150 µM | <1% | – | –
FC(F)(F)c1cc(NC(=S)NCCOc2ccc(Cl)c(Cl)c2)cc(C(F)(F)F)c1 [Compound E, 1-(3,5-Bis-trifluoromethyl-phenyl)-3-[2-(3,4-dichloro-phenoxy)-ethyl]-thiourea] | 0.3 µM (≈ 0.143 µg/mL) | 0.02 | – | – | 18.8 µM | – | – | –
O=C(O)c1cn(C2CC2)c2cc(N3CCNCC3)c(F)cc2c1=O [Ciprofloxicin, reference compound] | – | – | >100 µM | – | 150 µM | 0% | – | 1.5 µM (≈ 0.497 µg/mL)
FC(F)(F)c1cc(NC(=S)NCc2cccc(Cl)c2)cc(C(F)(F)F)c1 [Compound A, 1-(3,5-Bis-trifluoromethyl-phenyl)-3-(3-chloro-benzyl)-thiourea] | 0.6 µM (≈ 0.248 µg/mL) | 0.02 | 150 µM | – | 75 µM | <1% | – | –
